Assay: solvent given as SMILES

CC(C)c1cccc(C(C)C)c1N1C(=O)c2cccc3c(Oc4ccc(Cl)cc4)ccc(c23)C1=O gave an absorption maximum (in ClCCl) of 360 nm.
CC(C)C1=c2c(c3[nH]cc(C(C)C)c3c3ccccc23)=[N+]2C1=Cc1c(C(C)C)c3c4ccccc4c4c(C(C)C)c[nH]c4c3n1[B-]2(F)F showed an absorption maximum (in ClC(Cl)Cl) of 727 nm.
Compound CCOC(=O)C1=CN(c2ccccc2)C=C(C(=O)OCC)C1c1ccccc1 has an absorption maximum (in C1CCOC1) of 362 nm and an absorption maximum (in CO) of 366 nm.
c1ccc(-c2nc(-c3ccccc3)nc(-c3ccc(-c4ccc5c(c4)C4(c6ccccc6-c6ccccc64)c4ccccc4N5c4ccccc4)cc3)n2)cc1 showed an absorption maximum (in c1cc(-c2cccc(-n3c4ccccc4c4ccccc43)c2)cc(-n2c3ccccc3c3ccccc32)c1) of 387.78 nm.
CCCCCCCCC1(CCCCCCCC)c2ccccc2-c2ccc(N(c3ccc(-n4c5ccccc5c5ccccc54)cc3)c3ccc4c(c3)C(CCCCCCCC)(CCCCCCCC)c3ccccc3-4)cc21 gave an absorption maximum (in C1CCOC1) of 347 nm, an absorption maximum (in CC#N) of 345 nm and an absorption maximum (in CC(C)=O) of 345 nm. The absorption maximum (in CCCCCC) was 347 nm, the absorption maximum (in CCCCOCCCC) was 347 nm and the absorption maximum (in CCN(CC)CC) was 347 nm. It also gave an absorption maximum (in CCOC(C)=O) of 345 nm, an absorption maximum (in CCOCC) of 345 nm and an absorption maximum (in CN(C)C=O) of 345 nm. For the same compound, the absorption maximum (in Cc1ccccc1) was 348 nm and the absorption maximum (in ClCCl) was 348 nm.
c1ccc(-c2ccccc2)cc1 gave an absorption maximum (in C1CCCCC1) of 254.13 nm and an absorption maximum (in C1COCCO1) of 246 nm.
Compound CC1(C)CC(/N=C/c2ccc3ccc4cccc5ccc2c3c45)CC(C)(C)N1[O] has an absorption maximum (in C1CCCCC1) of 360 nm, an absorption maximum (in CC#N) of 359 nm and an absorption maximum (in CO) of 359 nm. For the same compound, the absorption maximum (in ClC(Cl)Cl) was 362 nm.
In the case of COC(=O)/C=C/C1=CC2=C(c3c(C)cc(C)cc3C)c3cc(/C=C/C(=O)OC)cn3[B-](F)(F)[N+]2=C1, the absorption maximum (in ClCCl) is reported as 577 nm.
For CC(C)(C)c1cc2c(c(C(C)(C)C)c1)O[B-](F)(F)[n+]1c-2nc(-c2ccccc2)c2cc(Cl)ccc21, the absorption maximum (in Cc1ccccc1) was 420 nm.
Compound CC1(C)c2ccccc2N(c2cc(C#N)c(C#N)cc2N2c3ccccc3C(C)(C)c3ccccc32)c2ccccc21 has an absorption maximum (in c1ccc2c(c1)c1ccccc1n2-c1ccc(-c2ccc(-n3c4ccccc4c4ccccc43)cc2)cc1) of 494 nm.
Oc1ccc(-c2nc(-c3ccccc3)c(-c3ccccc3)[nH]2)cc1 gave an absorption maximum (in CO) of 295 nm.
Work on C1=C(c2ccccc2)C2=Nc3c(-c4ccccc4)cc4n3[B-]3(Oc5ccccc5C1=[N+]23)Oc1ccccc1-4 (stereo not given) yielded an absorption maximum (in Cc1ccccc1) of 728 nm.
In the case of CCN(CC)c1ccc(/C=C/C(=O)c2c(O)cc(C)oc2=O)cc1, the absorption maximum (in CC#N) is reported as 476 nm, the absorption maximum (in CCCO) is reported as 468 nm and the absorption maximum (in CCO) is reported as 488 nm. The absorption maximum (in CCOC(C)=O) was 472 nm, the absorption maximum (in Cc1ccccc1) was 471 nm and the absorption maximum (in ClCCl) was 480 nm.
CCCCCCOc1ccc(-c2ccc(/C=C/c3cc(/C=C/c4ccc(-c5ccc(OCCCCCC)cc5)cc4)ncn3)cc2)cc1 gave an absorption maximum (in ClCCl) of 373 nm.
CCCCN1c2ccc(/C=C/c3cc(=O)oc4cc(C)ccc34)cc2Sc2cc(/C=C/c3cc(=O)oc4cc(C)ccc34)ccc21 showed an absorption maximum (in ClC(Cl)Cl) of 441 nm.
CN(C)c1ccc2c3c(ccc2c1)C(=O)CCC3 showed an absorption maximum (in C1CCCCC1) of 347 nm, an absorption maximum (in CC#N) of 356 nm and an absorption maximum (in CC(C)O) of 368 nm. It also gave an absorption maximum (in CCC(C)=O) of 356 nm, an absorption maximum (in CCO) of 369 nm and an absorption maximum (in CCOC(C)=O) of 353 nm. For the same compound, the absorption maximum (in CS(C)=O) was 363 nm, the absorption maximum (in Cc1ccccc1) was 353 nm and the absorption maximum (in ClCCl) was 358 nm. For the same compound, the absorption maximum (in Clc1ccccc1) was 357 nm.

From the Deep4Chem optical property database
